Assay [1] has as its system Mycobacterium tuberculosis. The assay is described as follows: Antimycobacterial activity against Mycobacterium tuberculosis H37Rv ATCC 27294 after 7 days by resazurin assay. As to conditions: H37Rv ATCC 27294, 168 h. It counts as functional. In general terms: Alamar Blue is a resazurin reagent that responds to reducing activity.
Assay [2] is described as follows: Inhibition of Mycobacterium tuberculosis acetohydroxy acid synthase after 60 mins by acetoin formation-based colorimetry.
Assay [3] concerns Mycobacterium tuberculosis. The assay is described as follows: Antimycobacterial activity against Mycobacterium tuberculosis H37Rv ATCC 27294 after 7 days by resazurin assay in presence of Isoleucine, Leucine and Valine. As to conditions: H37Rv ATCC 27294, 168 h. Format: functional.

SMILES strings stand for the structures. In brackets after ≈: the same amount, converted by molar mass. A value given as a limit tells only on which side of the number the result lay.

19 compounds from ChEMBL document CHEMBL3259742, “Design and synthesis of triazolopyrimidine acylsulfonamides as novel anti-mycobacterial leads acting through inhibition of acetohydroxyacid synthase” (Bioorg Med Chem Lett, 2014) can be followed below.

Consider `Cc1cc(C)n2nc(C(=O)NS(=O)(=O)c3c(C)cccc3OC(F)(F)F)nc2n1`, for which the MIC in assay [1] is ≤ 0.03 µg/mL; in assay [3] it was > 32 µg/mL. The compound also displayed a pIC50 in assay [2] of 7.75.

`Cc1cc(C)n2nc(C(=O)NS(=O)(=O)c3ccccc3CC#N)nc2n1` yielded an MIC in assay [1] of 32 µg/mL (≈ 86.4 µM). Moreover, the negative logarithm of the IC50 (pIC50) in assay [2] is on record as 6.59.

On to `COC(=O)c1ccccc1S(=O)(=O)NC(=O)c1nc2nc(C)cc(C)n2n1`, for which the MIC is 0.25 µg/mL (≈ 0.642 µM) in assay [1] and > 32 µg/mL in assay [3]. Moreover, the pIC50 in assay [2] worked out at 7.15.

Take `COc1ccccc1S(=O)(=O)NC(=O)c1nc2nc(C)cc(C)n2n1`: the values for the minimal inhibitory concentration (MIC) in assay [1] and in assay [3] were 0.5 µg/mL (≈ 1.38 µM) and > 32 µg/mL, respectively. Moreover, in assay [2], the pIC50 is 5.81.

Turning to `Cc1cc(C)n2nc(C(=O)NS(=O)(=O)c3ccccc3Br)nc2n1`, the minimal inhibitory concentration (MIC) was 0.25 µg/mL (≈ 0.609 µM) in assay [1] and > 32 µg/mL in assay [3]. Besides, the negative-log IC50 (pIC50) in assay [2] was 7.04.

For `Cc1cc(C)n2nc(C(=O)NS(=O)(=O)c3cccc(OC(F)(F)F)c3)nc2n1`, the MIC in assay [1] was determined as 16 µg/mL (≈ 38.5 µM). The same compound came in with a pIC50 in assay [2] of 5.6.

Regarding `Cc1cc(C)n2nc(C(=O)NS(=O)(=O)c3ccccc3F)nc2n1`, the minimum inhibitory concentration (MIC) in assay [1] and in assay [3] was > 32 µg/mL in each case. Further, the negative logarithm of the IC50 (pIC50) in assay [2] is 5.24.

Consider `Cc1cc(C)n2nc(C(=O)NS(=O)(=O)c3ccccc3OC(F)F)nc2n1`, for which the minimal inhibitory concentration (MIC) in assay [1] is < 0.25 µg/mL; in assay [3], > 32 µg/mL. In addition, the pIC50 in assay [2] is > 7.2.

With `Cc1cc(C)n2nc(C(=O)NS(=O)(=O)c3ccc(OC(F)(F)F)cc3)nc2n1`, the minimal inhibitory concentration (MIC) in assay [1] is > 32 µg/mL. In addition, the pIC50 in assay [2] is < 4.52.

As for `Cc1cc(C)n2nc(C(=O)NS(=O)(=O)c3ccccc3C(F)(F)F)nc2n1`, the MIC in assay [1] is ≤ 0.13 µg/mL; in assay [3], > 32 µg/mL. The compound also registered a pIC50 in assay [2] of 6.98.

On to `Cc1cc(C)n2nc(C(=O)NS(=O)(=O)c3ccccc3Cl)nc2n1`, for which the figures for the MIC in assay [1] and in assay [3] were 2 µg/mL (≈ 5.47 µM) and > 32 µg/mL, respectively. In assay [2], this compound had a pIC50 of 6.82.

With `COC(=O)c1ccccc1S(=O)(=O)NC(=O)Nc1nc(C)cc(C)n1` [SULFOMETURON METHYL], the values for the minimal inhibitory concentration (MIC) in assay [1] and in assay [3] were 16 µg/mL (≈ 43.9 µM) and > 32 µg/mL, respectively. The compound also gave a negative logarithm of the IC50 (pIC50) in assay [2] of 6.12.

Turning to `Cc1cc(C)n2nc(C(=O)NS(=O)(=O)c3c(C)cccc3Cl)nc2n1`, the MIC in assay [1] was 0.25 µg/mL (≈ 0.658 µM); in assay [3], > 32 µg/mL. Moreover, the negative logarithm of the IC50 (pIC50) in assay [2] is reported as 6.7.

In assay [1], `Cc1cc(C)n2nc(C(=O)NS(=O)(=O)c3cccc(Br)c3)nc2n1` showed a minimal inhibitory concentration (MIC) of 32 µg/mL (≈ 78 µM). Besides, the negative logarithm of the IC50 (pIC50) in assay [2] is 5.31.

As to `Cc1cc(C)n2nc(C(=O)NS(=O)(=O)c3cccc(C(F)(F)F)c3)nc2n1`, the MIC in assay [1] was 16 µg/mL (≈ 40.1 µM). In assay [2], this compound had a pIC50 of 5.36.

In the case of `Cc1cc(C)n2nc(C(=O)NS(=O)(=O)c3ccccc3C)nc2n1`, the minimal inhibitory concentration (MIC) in assay [1] is 1 µg/mL (≈ 2.9 µM); in assay [3], > 32 µg/mL. The same compound displayed a pIC50 in assay [2] of 6.29.

For `Cc1cc(C)n2nc(C(=O)NS(=O)(=O)c3ccccc3OC(F)(F)F)nc2n1`, the minimum inhibitory concentration (MIC) in assay [1] is 0.03 µg/mL (≈ 0.0722 µM); in assay [3], > 32 µg/mL. In assay [2], this compound came in with a pIC50 of 7.6.

For the compound `Cc1cc(C)n2nc(C(=O)NS(=O)(=O)c3c(C)cccc3C)nc2n1`, the MIC is 0.5 µg/mL (≈ 1.39 µM) in assay [1] and > 32 µg/mL in assay [3]. This compound had a pIC50 in assay [2] of 6.54.

With `Cc1cc(C)n2nc(C(=O)NS(=O)(=O)c3ccc(C(F)(F)F)cc3)nc2n1`, in assay [1], the MIC is > 32 µg/mL. Moreover, the pIC50 in assay [2] was < 4.52.

As a reminder, the MIC is the smallest concentration in the dilution series that meets the test's criterion for growth inhibition. For orientation: pIC50 means the negative decadic logarithm of the IC50, by convention in mol/L. Read a high pIC50 as a low IC50.
